Measurements taken from the supplement of paper PMC4862054.

test system: BT-474; experiment: normalised response (% of control), CellTox Green; higher = less cell death (100 = DMSO, 0 = benzethonium chloride kill control); conditions: incubation time: 72 h
Summary of the method: (§1)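 Each entry is the normalised signal at a single concentration within a series. The series comprised 5 concentrations in 10-fold steps over a compound-specific 10,000-fold range, placed in 384-well plates into which breast cancer cell lines were seeded as 20 µl suspension and incubated 72 h. CellTox Green (485/520 nm) fluorescence and then CellTiter-Glo luminescence were read, with signals normalised per plate to 0.1 % DMSO (100) and a positive kill control (0).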

Point of comparison: `COc1cc([C@@H]2c3cc4c(cc3[C@@H](O[C@@H]3O[C@@H]5CO[C@@H](c6cccs6)O[C@H]5[C@H](O)[C@H]3O)[C@H]3COC(=O)[C@H]23)OCO4)cc(OC)c1O` [Teniposide] (100 nM), normalised response 99.7%. Against it:
- CC1=C(/C=C/C(C)=C/C=C/C(C)=C/C(=O)O)C(C)(C)CCC1 [Tretinoin] (100 nM) — higher, 103%
- Oc1ncc(N(CCCl)CCCl)c(O)n1 [Uracil mustard] (100 nM) — higher, 104%
- COc1cc2c(NC3CCN(C(C)C)CC3)nc(C3CCCCC3)nc2cc1OCCCN1CCCC1 [UNC0638] (100 nM) — higher, 101%
- CC[C@H](C)C(=O)O[C@H]1C[C@H](O)C=C2C=C[C@H](C)[C@H](CC[C@@H](O)C[C@@H](O)CC(=O)O)[C@H]21 [Pravastatin] (100 nM) — lower, 99.2%
- C[C@H]1C[C@@H]2[C@H]([C@@H](O)C[C@@]3(C)[C@H]2CC[C@]3(O)C(=O)CO)[C@@]2(C)C=CC(=O)C=C12 [Methylprednisolone] (100 nM) — lower, 98.9%

test system: BT-549; experiment: as above; conditions: incubation time: 72 h
Summary of the method: as §1

Point of comparison: `COc1cc([C@@H]2c3cc4c(cc3[C@@H](O[C@@H]3O[C@@H]5CO[C@@H](c6cccs6)O[C@H]5[C@H](O)[C@H]3O)[C@H]3COC(=O)[C@H]23)OCO4)cc(OC)c1O` [Teniposide] (100 nM), normalised response 90.5%. Against it:
- CCc1cncnc1N1CCN(Cc2nc3ccc(C(F)(F)F)cc3[nH]2)CC1 (100 nM) — lower, 83.3%
- COc1cc2nccc(Oc3ccc(NC(=O)Nc4cc(C)on4)c(Cl)c3)c2cc1OC [Tivozanib] (100 nM) — higher, 109%
- O=C(O)C(=O)O.[NH-][C@@H]1CCCC[C@H]1[NH-].[Pt+2] [Oxaliplatin] (100 nM) — higher, 110%
- CC1=C(/C=C/C(C)=C/C=C/C(C)=C/C(=O)O)C(C)(C)CCC1 [Tretinoin] (100 nM) — higher, 115%
- Oc1ncc(N(CCCl)CCCl)c(O)n1 [Uracil mustard] (100 nM) — higher, 111%
- COc1cc2c(NC3CCN(C(C)C)CC3)nc(C3CCCCC3)nc2cc1OCCCN1CCCC1 [UNC0638] (100 nM) — lower, 63.7%
- CC[C@H](C)C(=O)O[C@H]1C[C@H](O)C=C2C=C[C@H](C)[C@H](CC[C@@H](O)C[C@@H](O)CC(=O)O)[C@H]21 [Pravastatin] (100 nM) — higher, 103%
- C[C@H]1C[C@@H]2[C@H]([C@@H](O)C[C@@]3(C)[C@H]2CC[C@]3(O)C(=O)CO)[C@@]2(C)C=CC(=O)C=C12 [Methylprednisolone] (100 nM) — higher, 103%

test system: MFM-223; experiment: as above; conditions: incubation time: 72 h
Summary of the method: as §1

Point of comparison: `CCc1cncnc1N1CCN(Cc2nc3ccc(C(F)(F)F)cc3[nH]2)CC1` (100 nM), normalised response 106%. Against it:
- COc1cc2nccc(Oc3ccc(NC(=O)Nc4cc(C)on4)c(Cl)c3)c2cc1OC [Tivozanib] (100 nM) — lower, 103%
- O=C(O)C(=O)O.[NH-][C@@H]1CCCC[C@H]1[NH-].[Pt+2] [Oxaliplatin] (100 nM) — lower, 76.6%
- CC1=C(/C=C/C(C)=C/C=C/C(C)=C/C(=O)O)C(C)(C)CCC1 [Tretinoin] (100 nM) — lower, 103%
- Oc1ncc(N(CCCl)CCCl)c(O)n1 [Uracil mustard] (100 nM) — lower, 102%
- COc1cc2c(NC3CCN(C(C)C)CC3)nc(C3CCCCC3)nc2cc1OCCCN1CCCC1 [UNC0638] (100 nM) — lower, 102%
- COc1cc([C@@H]2c3cc4c(cc3[C@@H](O[C@@H]3O[C@@H]5CO[C@@H](c6cccs6)O[C@H]5[C@H](O)[C@H]3O)[C@H]3COC(=O)[C@H]23)OCO4)cc(OC)c1O [Teniposide] (100 nM) — lower, 99.3%
- CC[C@H](C)C(=O)O[C@H]1C[C@H](O)C=C2C=C[C@H](C)[C@H](CC[C@@H](O)C[C@@H](O)CC(=O)O)[C@H]21 [Pravastatin] (100 nM) — lower, 98.2%
- C[C@H]1C[C@@H]2[C@H]([C@@H](O)C[C@@]3(C)[C@H]2CC[C@]3(O)C(=O)CO)[C@@]2(C)C=CC(=O)C=C12 [Methylprednisolone] (100 nM) — lower, 78.2%

test system: HDQ-P1; experiment: as above; conditions: incubation time: 72 h
Summary of the method: as §1

Point of comparison: `COc1cc([C@@H]2c3cc4c(cc3[C@@H](O[C@@H]3O[C@@H]5CO[C@@H](c6cccs6)O[C@H]5[C@H](O)[C@H]3O)[C@H]3COC(=O)[C@H]23)OCO4)cc(OC)c1O` [Teniposide] (100 nM), normalised response 102%. Against it:
- CCc1cncnc1N1CCN(Cc2nc3ccc(C(F)(F)F)cc3[nH]2)CC1 (100 nM) — lower, 96%
- COc1cc2nccc(Oc3ccc(NC(=O)Nc4cc(C)on4)c(Cl)c3)c2cc1OC [Tivozanib] (100 nM) — lower, 94.8%
- O=C(O)C(=O)O.[NH-][C@@H]1CCCC[C@H]1[NH-].[Pt+2] [Oxaliplatin] (100 nM) — higher, 110%
- CC1=C(/C=C/C(C)=C/C=C/C(C)=C/C(=O)O)C(C)(C)CCC1 [Tretinoin] (100 nM) — higher, 108%
- COc1cc2c(NC3CCN(C(C)C)CC3)nc(C3CCCCC3)nc2cc1OCCCN1CCCC1 [UNC0638] (100 nM) — the same, 102%
- CC[C@H](C)C(=O)O[C@H]1C[C@H](O)C=C2C=C[C@H](C)[C@H](CC[C@@H](O)C[C@@H](O)CC(=O)O)[C@H]21 [Pravastatin] (100 nM) — lower, 100%

test system: CAL-51; experiment: as above; conditions: incubation time: 72 h
Summary of the method: as §1

Point of comparison: `COc1cc2nccc(Oc3ccc(NC(=O)Nc4cc(C)on4)c(Cl)c3)c2cc1OC` [Tivozanib] (100 nM), normalised response 108%. Against it:
- CCc1cncnc1N1CCN(Cc2nc3ccc(C(F)(F)F)cc3[nH]2)CC1 (100 nM) — lower, 86.3%
- O=C(O)C(=O)O.[NH-][C@@H]1CCCC[C@H]1[NH-].[Pt+2] [Oxaliplatin] (100 nM) — lower, 84.7%
- CC1=C(/C=C/C(C)=C/C=C/C(C)=C/C(=O)O)C(C)(C)CCC1 [Tretinoin] (100 nM) — lower, 102%
- Oc1ncc(N(CCCl)CCCl)c(O)n1 [Uracil mustard] (100 nM) — higher, 109%
- COc1cc2c(NC3CCN(C(C)C)CC3)nc(C3CCCCC3)nc2cc1OCCCN1CCCC1 [UNC0638] (100 nM) — lower, 99.5%
- COc1cc([C@@H]2c3cc4c(cc3[C@@H](O[C@@H]3O[C@@H]5CO[C@@H](c6cccs6)O[C@H]5[C@H](O)[C@H]3O)[C@H]3COC(=O)[C@H]23)OCO4)cc(OC)c1O [Teniposide] (100 nM) — lower, 74.2%
- CC[C@H](C)C(=O)O[C@H]1C[C@H](O)C=C2C=C[C@H](C)[C@H](CC[C@@H](O)C[C@@H](O)CC(=O)O)[C@H]21 [Pravastatin] (100 nM) — lower, 73.3%
- C[C@H]1C[C@@H]2[C@H]([C@@H](O)C[C@@]3(C)[C@H]2CC[C@]3(O)C(=O)CO)[C@@]2(C)C=CC(=O)C=C12 [Methylprednisolone] (100 nM) — higher, 111%
